pIC50: −log10 of the molar value. Like-named read-outs stand apart in the source and are kept apart here.
Assays:
Experiment in all cases: 3H-2-deoxyglucose uptake inhibition in L929 cells
Format in all cases: cell-based
GLUT1 [1] = target: T1, GLUT1 (Mus musculus, UniProt P17809)
T1 sequence (P17809 1-492): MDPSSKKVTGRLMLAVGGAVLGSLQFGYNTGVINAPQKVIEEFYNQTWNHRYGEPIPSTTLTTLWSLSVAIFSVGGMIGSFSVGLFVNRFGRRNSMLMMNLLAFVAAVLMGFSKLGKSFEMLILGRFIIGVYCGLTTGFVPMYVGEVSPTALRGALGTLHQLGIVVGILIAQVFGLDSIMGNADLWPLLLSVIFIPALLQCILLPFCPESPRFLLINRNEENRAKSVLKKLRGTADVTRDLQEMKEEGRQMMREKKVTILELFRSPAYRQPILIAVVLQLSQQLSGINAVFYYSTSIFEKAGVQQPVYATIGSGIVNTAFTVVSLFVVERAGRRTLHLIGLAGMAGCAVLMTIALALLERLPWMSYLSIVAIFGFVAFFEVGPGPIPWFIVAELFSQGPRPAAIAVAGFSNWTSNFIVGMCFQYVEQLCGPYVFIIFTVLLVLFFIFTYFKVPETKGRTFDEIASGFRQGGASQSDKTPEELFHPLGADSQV

GLUT1 [2] = target: T1, GLUT1; remark: listed apart in the source
GLUT1 [3] = target: T1, GLUT1; remark: listed apart in the source

SMILES: O=C(Oc1cccc(F)c1OC(=O)c1cccc(O)c1)c1cccc(O)c1 [WZB-117]
- pIC50 (GLUT1 [1]): 5.07

SMILES: Cc1c(NC(=O)c2cc(C(N)=O)nc3cc(F)ccc23)c(C(F)(F)F)nn1Cc1ccc(C#N)cc1 [BAY-876]
- pIC50 (GLUT1 [2]): 7.70

SMILES: O=c1c(O)c(-c2ccc(O)c(O)c2)oc2cc(O)cc(O)c12 [quercetin, 3,3′,4′5,7-pentahydroxyflavone]
- pIC50 (GLUT1 [3]): 5.07

From paper PMC6035882 (Biochimie, 2018)
